Where a SMILES comes first, the peptide text is derived from it. [ ]: non-standard residue; d: D form. The star is where a group is joined. NHCH2CH2OH = OCCN*; For = O=C*
Columns and labels:
[1] = system: P388 mouse leukemia cells; details: 92 h
Method in brief: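 Peptide stocks diluted 250× in growth medium; P388 cells 1 × 10^4 cells/mL final; 37 °C, 5% CO2, 92 h. WST-1 + 1-methoxy PMS, 4 h, A415. Output: % viability.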

[2] = H+/Na+ transport assay of bead-derived peptides (one-point); type: biochemical; design: key: relative activity; mean of two control wells = 1.00; details: bead-derived peptide solution, EYPC/EYPG LUVs;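 further: relative to parent gramicidin A activity set to 1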
Method in brief: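 Values are normalized fluorescence, with Triton X-100 defining 100% and untreated LUVs 0%, and the two control wells averaging 1.00. Vesicles carried 1.0 mM pyranine and included egg yolk phosphatidylglycerol. Peptides were incubated with them 30 min at room temperature.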

[3] = system: Streptococcus pyogenes SSI-9; assay: Antibacterial activity assay of bead-derived peptides (three concentrations); type: cell-based; design: key: +++: inhibition by the 640-fold diluted peptide solution; ++: inhibition by the 160-fold diluted solution; +: inhibition by the 40-fold diluted solution; -: no inhibition; details: S. pyogenes, bead-derived peptide solution, three concentrations
Method in brief: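 Growth inhibition scored visually as precipitated bacteria after 37 °C, 18 h incubation. Streptococcus pyogenes SSI-9 inoculum of 2 × 10^5 CFU in Ca2+/Mg2+-adjusted Mueller Hinton broth plus 5% laked horse blood; peptides tested at three levels: stock, 4-fold and 16-fold DMSO dilutions.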

CNC(=O)C[C@@H](NC(=O)[C@@H](NC(=O)[C@H](NC(=O)[C@H](C)NC(=O)[C@@H](CC(C)C)NC(=O)[C@H](C)NC(=O)CNC(=O)[C@@H](NC=O)C(C)C)C(C)C)C(C)C)C(=O)N[C@@H](Cc1c[nH]c2ccccc12)C(=O)N[C@H](CC(C)C)C(=O)N[C@@H](Cc1c[nH]c2ccccc12)C(=O)N[C@H](CC(C)C)C(=O)N[C@@H](Cc1c[nH]c2ccccc12)C(=O)N[C@H](CC(C)C)C(=O)N[C@@H](Cc1c[nH]c2ccccc12)C(=O)NCCO [compound 9336] (For-VGA[dL]A[dV]V[dD](NHMe)W[dL]W[dL]W[dL]W-NHCH2CH2OH)
cell viability/% [1]: 100.0%
H+/Na+ transport activity normalized against the value of 1 (1.00) [2]: 1.18
antibacterial activity [3]: -

CC(C)C[C@@H](NC(=O)[C@H](Cc1c[nH]c2ccccc12)NC(=O)[C@H](NC(=O)[C@H](Cc1c[nH]c2ccccc12)NC(=O)[C@@H](CC(C)C)NC(=O)[C@H](Cc1c[nH]c2ccccc12)NC(=O)[C@H](NC(=O)[C@@H](NC(=O)[C@H](NC(=O)[C@H](C)NC(=O)[C@H](NC(=O)[C@H](C)NC(=O)CNC(=O)[C@@H](NC=O)C(C)C)C(C)C)C(C)C)C(C)C)C(C)C)C(C)C)C(=O)N[C@@H](Cc1c[nH]c2ccccc12)C(=O)NCCO [compound 2994] (For-VGA[dV]A[dV]V[dV]W[dL]W[dV]W[dL]W-NHCH2CH2OH)
cell viability/% [1]: 6.3%
H+/Na+ transport activity normalized against the value of 1 (1.00) [2]: 1.14
antibacterial activity [3]: ++

CC(C)C[C@@H](NC(=O)[C@H](C)NC(=O)[C@H](NC(=O)[C@H](C)NC(=O)CNC(=O)[C@@H](NC=O)C(C)C)C(C)C)C(=O)N[C@H](C(=O)N[C@@H](C(=O)N[C@@H](Cc1c[nH]c2ccccc12)C(=O)N[C@H](CC(C)C)C(=O)N[C@@H](Cc1c[nH]c2ccccc12)C(=O)N[C@@H](C(=O)N[C@@H](Cc1c[nH]c2ccccc12)C(=O)N[C@@H](C(=O)N[C@@H](Cc1c[nH]c2ccccc12)C(=O)NCCO)C(C)C)C(C)C)C(C)C)C(C)C [compound 6888] (For-VGA[dV]A[dL]V[dV]W[dL]W[dV]W[dV]W-NHCH2CH2OH)
cell viability/% [1]: 78.6%
H+/Na+ transport activity normalized against the value of 1 (1.00) [2]: 1.23
antibacterial activity [3]: +

CNC(=O)C[C@@H](NC(=O)[C@H](Cc1c[nH]c2ccccc12)NC(=O)[C@H](NC(=O)[C@H](Cc1c[nH]c2ccccc12)NC(=O)[C@@H](CC(C)C)NC(=O)[C@H](Cc1c[nH]c2ccccc12)NC(=O)[C@H](NC(=O)[C@@H](NC(=O)[C@@H](CC(C)C)NC(=O)[C@H](C)NC(=O)[C@H](NC(=O)[C@H](C)NC(=O)CNC(=O)[C@@H](NC=O)C(C)C)C(C)C)C(C)C)C(C)C)C(C)C)C(=O)N[C@@H](Cc1c[nH]c2ccccc12)C(=O)NCCO [compound 9727] (For-VGA[dV]A[dL]V[dV]W[dL]W[dV]W[dD](NHMe)W-NHCH2CH2OH)
cell viability/% [1]: 100.0%
H+/Na+ transport activity normalized against the value of 1 (1.00) [2]: 1.10
antibacterial activity [3]: -

CC(C)C[C@@H](NC(=O)[C@H](C)NC(=O)CNC(=O)[C@@H](NC=O)C(C)C)C(=O)N[C@@H](C)C(=O)N[C@@H](C(=O)N[C@H](C(=O)N[C@H](CC(C)C)C(=O)N[C@@H](Cc1c[nH]c2ccccc12)C(=O)N[C@H](CC(C)C)C(=O)N[C@@H](Cc1c[nH]c2ccccc12)C(=O)N[C@H](CC(C)C)C(=O)N[C@@H](Cc1c[nH]c2ccccc12)C(=O)N[C@H](CC(C)C)C(=O)N[C@@H](Cc1c[nH]c2ccccc12)C(=O)NCCO)C(C)C)C(C)C [compound 9628] (For-VGA[dL]A[dV]V[dL]W[dL]W[dL]W[dL]W-NHCH2CH2OH)
cell viability/% [1]: 0.0%
H+/Na+ transport activity normalized against the value of 1 (1.00) [2]: 1.16
antibacterial activity [3]: +

CC(C)C[C@@H](NC(=O)[C@H](Cc1c[nH]c2ccccc12)NC(=O)[C@H](NC(=O)[C@H](Cc1c[nH]c2ccccc12)NC(=O)[C@@H](CC(C)C)NC(=O)[C@H](Cc1c[nH]c2ccccc12)NC(=O)[C@H](NC(=O)[C@@H](NC(=O)[C@H](NC(=O)[C@H](C)NC(=O)[C@H](NC(=O)[C@H](C)NC(=O)CNC(=O)[C@@H](NC=O)C(C)C)[C@H](C)O)C(C)C)C(C)C)C(C)C)C(C)C)C(=O)N[C@@H](Cc1c[nH]c2ccccc12)C(=O)NCCO [compound 3548] (For-VGA[dT]A[dV]V[dV]W[dL]W[dV]W[dL]W-NHCH2CH2OH)
cell viability/% [1]: 100.0%
H+/Na+ transport activity normalized against the value of 1 (1.00) [2]: 1.16
antibacterial activity [3]: -

CC(C)C[C@@H](NC(=O)[C@H](Cc1c[nH]c2ccccc12)NC(=O)[C@H](NC(=O)[C@@H](NC(=O)[C@H](NC(=O)[C@H](C)NC(=O)[C@H](NC(=O)[C@H](C)NC(=O)CNC(=O)[C@@H](NC=O)C(C)C)[C@H](C)O)C(C)C)C(C)C)C(C)C)C(=O)N[C@@H](Cc1c[nH]c2ccccc12)C(=O)N[C@@H](C(=O)N[C@@H](Cc1c[nH]c2ccccc12)C(=O)N[C@@H](C(=O)N[C@@H](Cc1c[nH]c2ccccc12)C(=O)NCCO)C(C)C)C(C)C [compound 12298] (For-VGA[dT]A[dV]V[dV]W[dL]W[dV]W[dV]W-NHCH2CH2OH)
cell viability/% [1]: 100.0%
H+/Na+ transport activity normalized against the value of 1 (1.00) [2]: 1.04
antibacterial activity [3]: -

CC(C)C[C@@H](NC(=O)[C@H](C)NC(=O)CNC(=O)[C@@H](NC=O)C(C)C)C(=O)N[C@@H](C)C(=O)N[C@@H](C(=O)N[C@H](C(=O)N[C@H](CC(C)C)C(=O)N[C@@H](Cc1c[nH]c2ccccc12)C(=O)N[C@H](CC(C)C)C(=O)N[C@@H](Cc1c[nH]c2ccccc12)C(=O)N[C@@H](C(=O)N[C@@H](Cc1c[nH]c2ccccc12)C(=O)N[C@H](CC(C)C)C(=O)N[C@@H](Cc1c[nH]c2ccccc12)C(=O)NCCO)C(C)C)C(C)C)C(C)C [compound 7191] (For-VGA[dL]A[dV]V[dL]W[dL]W[dV]W[dL]W-NHCH2CH2OH)
cell viability/% [1]: 0.0%
H+/Na+ transport activity normalized against the value of 1 (1.00) [2]: 1.15
antibacterial activity [3]: +

CC(C)C[C@@H](NC(=O)[C@H](C)NC(=O)CNC(=O)[C@@H](NC=O)C(C)C)C(=O)N[C@@H](C)C(=O)N[C@H](CC(C)C)C(=O)N[C@H](C(=O)N[C@H](CC(C)C)C(=O)N[C@@H](Cc1c[nH]c2ccccc12)C(=O)N[C@H](CC(C)C)C(=O)N[C@@H](Cc1c[nH]c2ccccc12)C(=O)N[C@@H](C(=O)N[C@@H](Cc1c[nH]c2ccccc12)C(=O)N[C@H](CC(C)C)C(=O)N[C@@H](Cc1c[nH]c2ccccc12)C(=O)NCCO)C(C)C)C(C)C [compound 646] (For-VGA[dL]A[dL]V[dL]W[dL]W[dV]W[dL]W-NHCH2CH2OH)
cell viability/% [1]: 0.2%
H+/Na+ transport activity normalized against the value of 1 (1.00) [2]: 1.11
antibacterial activity [3]: +

CC(C)C[C@@H](NC(=O)[C@H](C)NC(=O)CNC(=O)[C@@H](NC=O)C(C)C)C(=O)N[C@@H](C)C(=O)N[C@H](CC(C)C)C(=O)N[C@H](C(=O)N[C@H](CC(C)C)C(=O)N[C@@H](Cc1c[nH]c2ccccc12)C(=O)N[C@@H](C(=O)N[C@@H](Cc1c[nH]c2ccccc12)C(=O)N[C@@H](C(=O)N[C@@H](Cc1c[nH]c2ccccc12)C(=O)N[C@@H](C(=O)N[C@@H](Cc1c[nH]c2ccccc12)C(=O)NCCO)C(C)C)[C@H](C)O)C(C)C)C(C)C [compound 8722] (For-VGA[dL]A[dL]V[dL]W[dV]W[dT]W[dV]W-NHCH2CH2OH)
cell viability/% [1]: 70.8%
H+/Na+ transport activity normalized against the value of 1 (1.00) [2]: 1.09
antibacterial activity [3]: -

Source: PMC7531004, “Discovery of gramicidin A analogues with altered activities by multidimensional screening of a one-bead-one-compound library” (Nature Communications, 2020)
